Data on 19 molecules can be found in US20240132519A1, “NRF2-ACTIVATING COMPOUND” (SENJU PHARMACEUTICAL CO., LTD., priority 2020, published 2024).

In this experiment the target is binding between NRF2 and KEAP1 (Homo sapiens (Human), UniProt Q14145). The experiment can be described thus: Binding assay: inhibition of binding between NRF2 and KEAP1 by BRET (NanoLuc-NRF2 and KEAP1-HaloTag cell lysates). The following applies: Test Example 1-1; NRF2-KEAP1 BRET; N=2. How it is done: The inhibitory activity of each compound on the binding between NRF2 and KEAP1 was measured by bioluminescence resonance energy transfer (BRET) assay. A plasmid having human NRF2 (Original Clone ID: ha01449s1) sequence fused with NanoLuc (19 kDa, Promega) at the N-terminal was transduced into HCE-T cells (immortalized human corneal epithelial cells) using FuGENE HD (Promega). 48 hours after transduction, the cell lysate was collected and used as an NRF2-expressing cell lysate. A plasmid having human KEAP1 (Original Clone ID: cs00328) sequence fused with HaloTag (33 kDa, Promega) at the C-terminal was transduced into HCE-T cells using FuGENE HD (Promega). After 24 hours, HaloTag Nano BRET 618 Ligand (Promega) was added to the medium. The cell lysate cultured for 24 hours after the addition was used as a KEAP1-expressing cell lysate.
binding between NRF2 and KEAP1, sequence (Q14145 whole entry, the tested form may be a part): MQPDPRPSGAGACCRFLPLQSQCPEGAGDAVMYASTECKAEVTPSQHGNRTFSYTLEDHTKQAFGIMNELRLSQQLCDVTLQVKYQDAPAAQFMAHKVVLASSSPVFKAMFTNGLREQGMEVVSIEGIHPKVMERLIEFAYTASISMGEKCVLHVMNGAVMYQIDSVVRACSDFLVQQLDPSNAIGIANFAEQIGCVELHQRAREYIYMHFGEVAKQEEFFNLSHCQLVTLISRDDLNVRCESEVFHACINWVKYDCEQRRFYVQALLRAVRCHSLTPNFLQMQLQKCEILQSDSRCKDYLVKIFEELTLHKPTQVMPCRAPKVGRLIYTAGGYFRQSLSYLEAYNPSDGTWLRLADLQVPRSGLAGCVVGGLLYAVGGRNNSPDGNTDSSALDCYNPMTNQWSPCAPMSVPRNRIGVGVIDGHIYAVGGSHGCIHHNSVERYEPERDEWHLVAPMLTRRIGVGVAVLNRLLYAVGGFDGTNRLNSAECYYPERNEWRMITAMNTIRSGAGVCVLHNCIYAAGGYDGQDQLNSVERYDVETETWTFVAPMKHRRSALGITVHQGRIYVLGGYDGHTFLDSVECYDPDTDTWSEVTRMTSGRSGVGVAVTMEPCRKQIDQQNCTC
The NRF2-expressing cell lysate and the KEAP1-expressing cell lysate were adjusted so that the luminescence and fluorescence intensities per well were constant. Tables 1 and 2 show the formulation of each reaction solution.
Each test substance at a concentration 100 times higher than the test concentration was dissolved in dimethylsulfoxide for adjustment. 49 μL of KEAP1 solution was added to a 96-well polystyrene microplate (FALCON) to which 1 μL of each test substance solution was added, followed by incubation for 15 minutes. Then, 50 μL of NRF2 solution was added to the above solution, followed by incubation for 1 hour. To measure the binding between NRF2 and KEAP1, NanoBRET Nano-Glo Substrate (Promega) diluted with Opti-Mem (Thermo Fisher Scientific) was added, followed by shaking for 30 seconds. Then, luminescence and fluorescence were measured using the GloMax Discover System (Promega). A 495-nm short pass filter and a 600-nm long pass filter were respectively used to measure donor and acceptor emission values. A value obtained by dividing the acceptor emission value by the donor emission value was regarded as BRET value. A BRET value when the compound was not added, and a BRET value when the KEAP1 solution was not added were respectively used as binding rates of 100% and 0%, and the binding rate when the compound was added was calculated. Further, using this binding rate, the 50% binding inhibitory activity concentration (IC50) was calculated from the following formula. The test was performed at N=2.
IC50(M)=10^(LOG(A/B)×(50−C)/(D−C)+LOG(B)) • A: higher concentration out of 2 close concentrations across the inhibition rate of 50% • B: lower concentration out of 2 close concentrations across the inhibition rate of 50% • C: inhibition rate at B • D: inhibition rate at A
Compounds A1/A2, compounds B1/B2, compounds C1/C2, and compounds D1/D2 were used as test substances. Binding assay and reporter assay were performed as in Test Example 1-1 and Test Example 1-2.
For orientation: IC50 means the midpoint of a concentration-inhibition curve. In turn, “3-(3-{[(R)-4-ethyl-1,1-dioxide-3,4-dihydro-2H-benzo[b][1,4,5]oxathiazepin-2-yl]methyl}-4-methylphenyl)-3-(5-sulfamoylthiophen-2-yl)propanoic acid [Compound 18]” returned a half-inhibitory concentration (IC50) of 35 nM.

“3-[5-(cyclopropanecarbonyl)thiophen-2-yl]-3-(3-{[(R)-4-ethyl-1,1-dioxide-3,4-dihydro-2H-benzo[b][1,4,5]oxathiazepin-2-yl]methyl}-4-methylphenyl)propanoic acid [Compound 20]” came in with an IC50 of 24 nM.

In turn, `CC[C@@H]1CN(Cc2cc(C(c3ccc(C(C)=O)s3)C(C)C(=O)O)ccc2C)S(=O)(=O)c2ccccc2O1` (stereo partly drawn) [Compound 1, 3-(5-acetylthiophen-2-yl)-3-(3-{[(R)-4-ethyl-1,1-dioxide-3,4-dihydro-2H-benzo[b][1,4,5]oxathiazepin-2-yl]methyl}-4-methylphenyl)-2-methylpropanoic acid] came in with a 50% inhibitory concentration (IC50) of 0.24 nM.

In turn, `CC[C@@H]1CN(Cc2cc(C(c3cc(C(C)=O)cs3)C(C)C(=O)O)ccc2C)S(=O)(=O)c2ccccc2O1` (stereo partly drawn) [Compound 3, 3-(4-acetylthiophen-2-yl)-3-(3-{[(R)-4-ethyl-1,1-dioxide-3,4-dihydro-2H-benzo[b][1,4,5]oxathiazepin-2-yl]methyl}-4-methylphenyl)-2-methylpropanoic acid] yielded a 50% inhibitory concentration (IC50) of 0.17 nM.

For `CC[C@@H]1CN(Cc2cc(C(c3cc(OC)c(C(C)=O)s3)C(C)(C)C(=O)O)ccc2C)S(=O)(=O)c2ccccc2O1` (stereo partly drawn) [Compound 4, 3-(5-acetyl-4-methoxythiophen-2-yl)-3-(3-{[(R)-4-ethyl-1,1-dioxide-3,4-dihydro-2H-benzo[b][1,4,5]oxathiazepin-2-yl]methyl}-4-methylphenyl)-2,2-dimethylpropanoic acid], the IC50 is 0.41 nM.

For the molecule `CC[C@@H]1CN(Cc2cc(C(CC(=O)O)c3ccc(C(C)=O)s3)ccc2C)S(=O)(=O)c2ccccc2O1` (stereo partly drawn) [Compound 5, 3-(5-acetylthiophen-2-yl)-3-(3-{[(R)-4-ethyl-1,1-dioxide-3,4-dihydro-2H-benzo[b][1,4,5]oxathiazepin-2-yl]methyl}-4-methylphenyl)propanoic acid], the IC50 was 0.23 nM.

Turning to `CC[C@@H]1CN(Cc2cc(C(c3ccc(C(C)=O)s3)C(C)(C)C(=O)O)ccc2C)S(=O)(=O)c2ccccc2O1` (stereo partly drawn) [Compound 6, 3-(5-acetylthiophen-2-yl)-3-(3-{[(R)-4-ethyl-1,1-dioxide-3,4-dihydro-2H-benzo[b][1,4,5]oxathiazepin-2-yl]methyl}-4-methylphenyl)-2,2-dimethylpropanoic acid], the IC50 was 0.27 nM.

`CC[C@@H]1CN(Cc2cc(C(CC(=O)O)c3cc(C)c(C(C)=O)s3)ccc2C)S(=O)(=O)c2ccccc2O1` (stereo partly drawn) [Compound 7, 3-(5-acetyl-4-methylthiophen-2-yl)-3-(3-{[(R)-4-ethyl-1,1-dioxide-3,4-dihydro-2H-benzo[b][1,4,5]oxathiazepin-2-yl]methyl}-4-methylphenyl)propanoic acid] had a half-maximal inhibitory concentration (IC50) of 0.36 nM.

As for `CC[C@@H]1CN(Cc2cc(C(CC(=O)O)c3cc(F)c(C(C)=O)s3)ccc2C)S(=O)(=O)c2ccccc2O1` (stereo partly drawn) [Compound 8, 3-(5-acetyl-4-fluorothiophen-2-yl)-3-(3-{[(R)-4-ethyl-1,1-dioxide-3,4-dihydro-2H-benzo[b][1,4,5]oxathiazepin-2-yl]methyl}-4-methylphenyl)propanoic acid], the 50% inhibitory concentration (IC50) was 0.36 nM.

The molecule `CC[C@@H]1CN(Cc2cc(C(c3ccc(C(C)=O)s3)C(C)(C)C(=O)O)ccc2C)S(=O)(=O)c2c(F)cccc2O1` (stereo partly drawn) [Compound 9, 3-(5-acetylthiophen-2-yl)-3-(3-{[(R)-4-ethyl-9-fluoro-1,1-dioxide-3,4-dihydro-2H-benzo[b][1,4,5]oxathiazepin-2-yl]methyl}-4-methylphenyl)-2,2-dimethylpropanoic acid] displayed an IC50 of 0.3 nM.

Molecule `CC[C@@H]1CN(Cc2cc(C(CC(=O)O)c3cc(C(C)=O)cs3)ccc2C)S(=O)(=O)c2ccccc2O1` (stereo partly drawn) [Compound 10, 3-(4-acetylthiophen-2-yl)-3-(3-{[(R)-4-ethyl-1,1-dioxide-3,4-dihydro-2H-benzo[b][1,4,5]oxathiazepin-2-yl]methyl}-4-methylphenyl)propanoic acid] came in with a half-inhibitory concentration (IC50) of 0.3 nM.

`CC[C@@H]1CN(Cc2cc(C(c3cc(F)c(C(C)=O)s3)C(C)(C)C(=O)O)ccc2C)S(=O)(=O)c2ccccc2O1` (stereo partly drawn) [Compound 11, 3-(5-acetyl-4-fluorothiophen-2-yl)-3-(3-{[(R)-4-ethyl-1,1-dioxide-3,4-dihydro-2H-benzo[b][1,4,5]oxathiazepin-2-yl]methyl}-4-methylphenyl)-2,2-dimethylpropanoic acid] yielded an IC50 of 0.23 nM.

`CC(=O)c1ccc(C(c2ccc(C)c(CN3C[C@@H](C)Oc4ccccc4S3(=O)=O)c2)C(C)(C)C(=O)O)s1` (stereo partly drawn) [Compound 12, 3-(5-acetylthiophen-2-yl)-2,2-dimethyl-3-(4-methyl-3-{[(R)-4-methyl-1,1-dioxide-3,4-dihydro-2H-benzo[b][1,4,5]oxathiazepin-2-yl]methyl}phenyl)propanoic acid] showed a 50% inhibitory concentration (IC50) of 0.28 nM.

On to `CC(=O)c1ccc(C(c2ccc(C)c(CN3CC(CCOCc4ccccc4)Oc4ccccc4S3(=O)=O)c2)C(C)C(=O)O)s1` (stereo not shown) [Compound 13, 3-(5-acetylthiophen-2-yl)-3-[3-({4-[2-(benzyloxy)ethyl]-1,1-dioxide-3,4-dihydro-2H-benzo[b][1,4,5]oxathiazepin-2-yl}methyl)-4-methylphenyl]-2-methylpropanoic acid], for which the IC50 stood at 0.5 nM.

`CC[C@@H]1CN(Cc2cc(C(CC(=O)O)c3sc(C(C)=O)cc3C)ccc2C)S(=O)(=O)c2ccccc2O1` (stereo partly drawn) [Compound 14, 3-(5-acetyl-3-methylthiophen-2-yl)-3-(3-{[(R)-4-ethyl-1,1-dioxide-3,4-dihydro-2H-benzo[b][1,4,5]oxathiazepin-2-yl]methyl}-4-methylphenyl)propanoic acid]: the concentration for half-maximal inhibition (IC50) was found to be 1.3 nM.

In turn, `CC[C@@H]1CN(Cc2cc(C(CC(=O)O)c3csc(C(C)=O)c3)ccc2C)S(=O)(=O)c2ccccc2O1` (stereo partly drawn) [Compound 15, 3-(5-acetylthiophen-3-yl)-3-(3-{[(R)-4-ethyl-1,1-dioxide-3,4-dihydro-2H-benzo[b][1,4,5]oxathiazepin-2-yl]methyl}-4-methylphenyl)propanoic acid] returned an IC50 of 1.4 nM.

In turn, `CC[C@@H]1CN(Cc2cc(C(c3ccc(C(C)=O)s3)C(C)C(=O)O)ccc2C)S(=O)(=O)c2cnccc2O1` (stereo partly drawn) [Compound 16, 3-(5-acetylthiophen-2-yl)-3-(3-{[(R)-4-ethyl-1,1-dioxide-3,4-dihydro-2H-pyrido[4,3-b][1,4,5]oxathiazepin-2-yl]methyl}-4-methylphenyl)-2-methylpropanoic acid] yielded a concentration for half-maximal inhibition (IC50) of 0.2 nM.

For `CC[C@@H]1CN(Cc2cc(C(CC(=O)O)c3cccs3)ccc2C)S(=O)(=O)c2ccccc2O1` (stereo partly drawn) [Compound 17, 3-(3-{[(R)-4-ethyl-1,1-dioxide-3,4-dihydro-2H-benzo[b][1,4,5]oxathiazepin-2-yl]methyl}-4-methylphenyl)-3-(thiophen-2-yl)propanoic acid], the half-inhibitory concentration (IC50) came to 28 nM.

Consider `CC[C@@H]1CN(Cc2cc(C(CC(=O)O)c3ccc(C#N)s3)ccc2C)S(=O)(=O)c2ccccc2O1` (stereo partly drawn) [Compound 19, 3-(5-cyanothiophen-2-yl)-3-(3-{[(R)-4-ethyl-1,1-dioxide-3,4-dihydro-2H-benzo[b][1,4,5]oxathiazepin-2-yl]methyl}-4-methylphenyl)propanoic acid], for which the concentration for half-maximal inhibition (IC50) amounted to 3.1 nM.
